According to patent US7419966B2, “[5-carboxamido or 5-fluoro]-[2′,3′-unsaturated or 3′-modified]-pyrimidine nucleosides” (Emory University, priority 1995, dated 2008):
Where two headings read alike, the source gives them in different places.

Experiments:
Type in all cases: cell-based
HIV-1 (strain LAV) = test: Anti-HIV-1 activity in PHA-stimulated human PBM cells (reverse transcriptase readout); settings: for EC50: Table 3, HIV-1LAI, estimated 10% error factor, read-out: Anti-HIV-1 in PBMC EC50; for antiviral activity against HIV, in words: text b71, b85
Description: The ability of nucleosides to inhibit HIV can be measured by various experimental techniques. The technique used herein, and described in detail below, measures the inhibition of viral replication in phytohemagglutinin (PHA) stimulated human peripheral blood mononuclear (PBM) cells infected with HIV-1. (strain LAV). The amount of virus produced is determined by measuring the virus-coded reverse transcriptase enzyme. The amount of enzyme produced is proportional to the amount of virus produced.
Three-day-old phytohemagglutinin-stimulated PBM cells (10^6 cells/ml) from hepatitis B and HIV-1 seronegative healthy donors were infected with HIV-1 (strain LAV) at a concentration of about 100 times the 50% tissue culture infectious dose (TICD 50) per ml and cultured in the presence and absence of various concentrations of antiviral compounds.
Approximately one hour after infection, the medium, with the compound to be tested (2 times the final concentration in medium) or without compound, was added to the flasks (5 ml; final volume 10 ml). AZT was used as a positive control.
The cells were exposed to the virus (about 2×10^5 dpm/ml, as determined by reverse transcriptase assay) and then placed in a CO2 incubator. HIV-1 (strain LAV) was obtained from the Center for Disease Control, Atlanta, Ga. The methods used for culturing the PBM cells, harvesting the virus and determining the reverse transcriptase activity were those described by McDougal et al. (J. Immun. Meth. 76, 171-183, 1985) and Spira et al. (J. Clin. Meth. 25, 97-99, 1987), except that fungizone was not included in the medium (see Schinazi, et al., Antimicrob. Agents Chemother. 32, 1784-1787 (1988); Id., 34:1061-1067 (1990)).
On day 6, the cells and supernatant were transferred to a 15 ml tube and centrifuged at about 900 g for 10 minutes. Five ml of supernatant were removed and the virus was concentrated by centrifugation at 40,000 rpm for 30 minutes (Beckman 70.1 Ti rotor). The solubilized virus pellet was processed for determination of the levels of reverse transcriptase. Results are expressed in dpm/ml of sampled supernatant. Virus from smaller volumes of supernatant (1 ml) can also be concentrated by centrifugation prior to solubilization and determination of reverse transcriptase levels.

SIVSMM = test: Anti-SIV activity in PBMC; settings: Table 3; SIVSMM; read-out: Anti-SIV in PBMC EC50
[1] = system: hepatitis B virus in transfected HepG-2 (2.2.15) cells; test: Anti-HBV activity in 2.2.15 cell cultures (HBV virion DNA and replicative intermediates); settings: for EC50 / EC90: day 9
Description: The ability of the active compounds to inhibit the growth of virus in 2.2.15 cell cultures (HepG2 cells transformed with hepatitis virion) can be evaluated as described in detail below.
A summary and description of the assay for antiviral effects in this culture system and the analysis of HBV DNA has been described (Korba and Milman, 1991, Antiviral Res., 15:217). The antiviral evaluations were performed on two separate passages of cells. All wells, in all plates, were seeded at the same density and at the same time.
Due to the inherent variations in the levels of both intracellular and extracellular HBV DNA, only depressions greater than 3.5-fold (for HBV virion DNA) or 3.0-fold (for HBV DNA replication intermediates) from the average levels for these HBV DNA forms in untreated cells are considered to be statistically significant [P<0.05]. The levels of integrated HBV DNA in each cellular DNA preparation (which remain constant on a per cell basis in these experiments) were used to calculate the levels of intracellular HBV DNA forms, thereby ensuring that equal amounts of cellular DNA were compared between separate samples.
Typical values for extracellular HBV virion DNA in untreated cells ranged from 50 to 150 pg/ml culture medium (average of approximately 76 pg/ml). Intracellular HBV DNA replication intermediates in untreated cells ranged from 50 to 100 pg/μg cell DNA (average approximately 74 pg/μg cell DNA). In general, depressions in the levels of intracellular HBV DNA due to treatment with antiviral compounds are less pronounced, and occur more slowly, than depressions in the levels of HBV virion DNA (Korba and Milman, 1991, Antiviral Res., 15:217).

[2] = system: 2.2.15 cells (HepG2 cells transformed with hepatitis virion); test: Toxicity in 2.2.15 cells by neutral red dye uptake; settings: Table 4; 2.2.15 cells; read-out: Cytotoxicity IC50 ± SD
Description: (§1) Toxicity analyses were performed to assess whether any observed antiviral effects were due to a general effect on cell viability. The method used herein was the measurement of the uptake of neutral red dye, a standard and widely used assay for cell viability in a variety of virus-host systems, including HSV and HIV. Toxicity analyses were performed in 96-well flat bottomed tissue culture plates. Cells for the toxicity analyses were cultured and treated with test compounds with the same schedule as described for the antiviral evaluations below. Each compound was tested at 4 concentrations, each in triplicate cultures (wells “A”, “B”, and “C”). Uptake of neutral red dye was used to determine the relative level of toxicity. The absorbance of internalized dye at 510 nm (Asin) was used for the quantitative analysis. Values are presented as a percentage of the average Asin values in 9 separate cultures of untreated cells maintained on the same 96-well plate as the test compounds. Dye uptake in the 9 control cultures on plate 5 ranged from 91.6% to 110.4%, and on plate 6 from 96.6% to 109%.

CEM cells = test: Toxicity in CEM cells; settings: Table 3
Vero cells = test: Toxicity in Vero cells; settings: Table 3
HIV-2ROD2 = test: Anti-HIV-2 activity in PBMC; settings: Table 3; HIV-2ROD2; read-out: Anti-HIV-2 in PBMC EC50
various cell lines = test: Toxicity in various cell lines (PBM, CEM, Vero); settings: PBM, CEM and Vero cells
[3] = system: uninfected human PBM cells; test: Toxicity in mitogen-stimulated uninfected human PBM cells (cell count, trypan blue exclusion); settings: Table 3
Description: Mitogen stimulated uninfected human PBM cells (3.8×10^5 cells/ml) were cultured in the presence and absence of drug under similar conditions as those used for the antiviral assay described above. The cells were counted after 6 days using a hemacytometer and the trypan blue exclusion method, as described by Schinazi et al., Antimicrobial Agents and Chemotherapy, 22(3), 499 (1982). […]

[4] = Toxicity in 2.2.15 cells by neutral red dye uptake; settings: human, 2.2.15 cells (HepG2 cells transformed with hepatitis virion), 2.2.15 cells, read-out: Cytotoxicity IC50 ± SD
Description: as §1

[5] = Table 4, extracellular DNA, untreated control 88 pg/ml, read-out: HBV virion EC50 ± SD
[6] = Table 4, extracellular DNA, untreated control 88 pg/ml, read-out: HBV virion EC90 ± SD
[7] = Table 4, replicative intermediates (intracellular DNA), untreated control 79 pg/μg cell DNA, read-out: HBV RI EC50 ± SD
[8] = Table 4, replicative intermediates (intracellular DNA), untreated control 79 pg/μg cell DNA, read-out: HBV RI EC90 ± SD

SMILES	EC50 (HIV-1 (strain LAV)) [µM]	antiviral activity against HIV, in words (HIV-1 (strain LAV))	EC50 (SIVSMM) [µM]	EC50 [1, 5] [µM]	EC90 [1, 6] [µM]	EC50 [1, 7] [µM]	EC90 [1, 8] [µM]	IC50 [2] [µM]	IC50 (CEM cells) [µM]	IC50 (Vero cells) [µM]	EC50 (HIV-2ROD2) [µM]	toxicity, in words (various cell lines)	IC50 [3] [µM]	Selectivity Index IC50/EC90 RI ([1]; Table 2)	Selectivity Index IC50/EC90 Virion ([1]; Table 2)	IC50 ([4]; Table 2) [µM]	other results
Nc1ccn([C@@H]2C=C[C@H](CO)O2)c(=O)n1 [L-D4C, β-L-2′,3′-didehydro-2′,3′-dideoxy-cytidine]	0.0058	significant activity against HIV	0.048	0.15 ± 0.02	0.33 ± 0.04	0.91 ± 0.09	2.3 ± 0.3	1040 ± 92	0.73	10.8	0.033	relatively nontoxic	> 100				
Nc1nc(=O)n([C@@H]2C=C[C@H](CO)O2)cc1F [L-F-D4C, β-L-2′,3′-didehydro-2′,3′-dideoxy-5-fluoro-cytidine]	0.0015	significant activity against HIV	0.00015	0.28 ± 0.03	0.41 ± 0.04	0.33 ± 0.04	0.75 ± 0.07	> 3	7.3	40.3	0.0006	relatively nontoxic	> 100				
Nc1ccn([C@H]2CC[C@@H](CO)O2)c(=O)n1 [β-D-DDC, 2′,3′-dideoxycytidine, reference compound]														18	26	236 ± 21	EC50 ([1]; Hepatitis B virus, HepG2 2.2.15, 216 h, read-out: HBV RI EC50 ± SD, Table 2, replicative intermediates (intracellular DNA), untreated control 87 pg/μg cell DNA): 3.4 ± 0.4 µM; EC50 ([1]; Hepatitis B virus, HepG2 2.2.15, 216 h, read-out: HBV RI EC50 ± SD, Table 4, replicative intermediates (intracellular DNA), untreated control 79 pg/μg cell DNA): 2.4 ± 0.3 µM; EC90 ([1]; Hepatitis B virus, HepG2 2.2.15, 216 h, read-out: HBV RI EC90 ± SD, Table 2, replicative intermediates (intracellular DNA), untreated control 87 pg/μg cell DNA): 13 ± 1.4 µM; EC90 ([1]; Hepatitis B virus, HepG2 2.2.15, 216 h, read-out: HBV RI EC90 ± SD, Table 4, replicative intermediates (intracellular DNA), untreated control 79 pg/μg cell DNA): 12 ± 1.1 µM; EC50 ([1]; Hepatitis B virus, HepG2 2.2.15, 216 h, read-out: HBV virion EC50 ± SD, Table 2, extracellular DNA, untreated control 102 pg/ml): 1.4 ± 0.2 µM; EC50 ([1]; Hepatitis B virus, HepG2 2.2.15, 216 h, read-out: HBV virion EC50 ± SD, Table 4, extracellular DNA, untreated control 88 pg/ml): 1.5 ± 0.2 µM; EC90 ([1]; Hepatitis B virus, HepG2 2.2.15, 216 h, read-out: HBV virion EC90 ± SD, Table 2, extracellular DNA, untreated control 102 pg/ml): 9.6 ± 1.1 µM; EC90 ([1]; Hepatitis B virus, HepG2 2.2.15, 216 h, read-out: HBV virion EC90 ± SD, Table 4, extracellular DNA, untreated control 88 pg/ml): 8.2 ± 0.8 µM; Selectivity Index IC50/EC90 RI ([1]; Table 4): 22; Selectivity Index IC50/EC90 Virion ([1]; Table 4): 37; IC50 ([4]; Table 4): 259 ± 18 µM
Nc1nc(=O)n([C@@H]2CS[C@H](CO)O2)cc1F [β-L-FTC, (−)-cis-2-hydroxymethyl-5-(5-fluorocytosin-1-yl)-1,3-oxathiolane, reference compound]														1,913	678	746 ± 33	EC50 ([1]; Hepatitis B virus, HepG2 2.2.15, 216 h, Table 2, extracellular DNA, untreated control 102 pg/ml, read-out: HBV virion EC50 ± SD): 0.04 ± 0.006 µM; EC90 ([1]; Hepatitis B virus, HepG2 2.2.15, 216 h, Table 2, extracellular DNA, untreated control 102 pg/ml, read-out: HBV virion EC90 ± SD): 1.1 ± 0.1 µM; EC50 ([1]; Hepatitis B virus, HepG2 2.2.15, 216 h, Table 2, replicative intermediates (intracellular DNA), untreated control 87 pg/μg cell DNA, read-out: HBV RI EC50 ± SD): 0.16 ± 0.01 µM; EC90 ([1]; Hepatitis B virus, HepG2 2.2.15, 216 h, Table 2, replicative intermediates (intracellular DNA), untreated control 87 pg/μg cell DNA, read-out: HBV RI EC90 ± SD): 0.39 ± 0.22 µM
